Reference: paper PMC11093748, “De novo identification of CD4^+ T cell epitopes” (Nature Methods, 2024)

Key:
[1] = system: GSE.20D11 TCR; experiment: HLA-DQ8 SABR-II (+ HLA-A2.1 SABR) library screen, enrichment score; type: cell-based, human; conditions: combined class I and II library
From the text: To test whether HLA-DQ8 SABR-II could be used for antigen discovery, we curated a list of insulin B, insulin C and HIP epitopes published by Wiles et al.[58] and cloned them into the DQ8 SABR-II backbone using the same pooled cloning strategy as the I-Ag7 SABR-II library (Supplementary Table 2). Furthermore, we combined SABR-I (the HLA-A*0201 library reported in our previous work[27]) and SABR-II libraries at a cellular level and screened against the GSE.20D11 TCR.
To generate the I-Ag7 restricted SABR library, we combined all Immune Epitope Database epitopes with a published immunopeptidome generated by Wan et al.[51]. Sequences were filtered remove all post-translational modifications except deamidation and HIPs and trimmed between 9–25 amino acid lengths. For the insulin C HIP and HLA-DQ8 library, non-contiguous epitopes from Wiles et al.[66] as well as all Immune Epitope Database epitopes were combined to generate the epitope list. Epitope sequences were back-translated using the backtranslate_fast.py script.
(§1) For SABR library screens, 3 × 10^6 NFAT–GFP Jurkat cells expressing the SABR library were labeled with CellTrace Violet (BioLegend) according to the manufacturer’s protocol before incubation with 3 × 10^6 Jurkat cells expressing the TCR of interest. These mixtures were incubated in a six-well plate for 16–20 h. Cells were stained with anti-CD69-APC-Cy7 where indicated (BioLegend) and the top 1–2% of GFP^+CD69^+ cells were sorted for genomic DNA extraction, indexing and sequencing (see below). Multiplexed assays were scaled on a per-TCR basis (for example 3 × 10^6 for each of three TCRs against 9 × 10^6 library cells). For single SABR assays, unless otherwise defined, 5 × 10^5 SABR expressing NFAT–GFP Jurkat cells (or 5KC cells) were labeled with CellTrace Violet (BioLegend) according to the manufacturer’s protocol before incubation with 5 × 10^5 TCR-expressing Jurkat cells (or 5KC cells) in a round-bottom 96-well plate for 16–20 h. Cells were stained with anti-CD69-APC-Cy7 when indicated and acquired on the Attune NxT flow cytometer (Thermo Fisher Scientific). All flow analysis was performed using FlowJo (BD). For Daudi cell co-culture, 1 × 10^6 Jurkat cells expressing the TCR of interest were incubated with 1 × 10^6 Daudi cells expressing a SABR of interest for 3 days. On day 3, cells were labeled with anti-RT1B-PE and anti-Fas-APC-Cy7 before being acquired on the Attune NxT flow cytometer.
Genomic DNA was extracted from sorted cells immediately after sorting, using the PureLink genomic DNA extraction kit (Life Technologies). The integrated SABR vectors were amplified with KOD polymerase (Millipore) and two rounds of amplification. In the first round, IDT-UD-SABR-C2-F and IDT-UD-SABR-C2-R primers were used to amplify the epitope. In the second round, UDI0001-R and UDI0001-F primers (representative of index 1) were used to add Illumina unique dual indexes (UDIs) to the amplicons. A different UDI was used for each sample. The reactions were pooled and purified with the NucleoSpin gel and PCR purification kit (Takara). The purified PCR product was checked before sequencing using 2% agarose gel and subjected to sequencing on a HiSeq4000 (Fulgent Genetics). Unaligned reads generated by the sequencer were stored in FASTQ files. FASTQ files were concatenated to generate one file for read1 and read2 each. The sequences were demultiplexed into individual indexes using demultiplex_dual.py. Epitopes were extracted and scored using epitope_extract_fastq_v1.1.py and merge_counts_split_v2.1.py. The ES was calculated using Microsoft Excel (Microsoft) workbooks.

[2] = system: GSE.6H9 TCR; experiment: Single SABR-II co-incubation, NFAT-GFP Jurkat (HLA-DQ8); type: cell-based, human; conditions: HLA-DQ8 SABR-II
From the text: We have previously described SABRs, which are chimeric receptors containing an extracellular pMHC complex attached to an intracellular CD28-CD3ζ signaling domain. […] We sought to expand this platform to allow antigen discovery for MHC/HLA-II with seamless integration with class I alleles. Here, we created SABRs to present epitopes in MHC-II alleles, by covalently linking the epitope to the β-chain of MHC-II that is attached to the CD28-CD3ζ signaling domains downstream, along with a 2A peptide-linked MHC-II α-chain (Fig. 1a,b). To test whether SABR-IIs could present epitopes to TCRs and induce a signal, we expressed them using lentiviral vectors in NFAT–GFP Jurkat cells, which express green fluorescent protein (GFP) upon NFAT activation and translocation downstream of CD3ζ activation (a kind gift from Y. Chen and A. Weiss). We constructed murine SABR-IIs presenting epitopes in I-Ab, I-Ad and I-Ag7 (Ova, […][41]; ATEG, […][42]; and 2.5mimo, […][43], respectively). We co-incubated the SABR-II-expressing NFAT–GFP Jurkat cells with a separate population of Jurkat cells expressing either the BDC2.5 TCR (recognizes I-Ag7-2.5mimo), OT-II TCR (recognizes I-Ab-Ova), 5-4-E8 TCR (recognizes I-Ad-ATEG) or no TCR. […] The signal from the NFAT–GFP reporter offered minimal background in absence of a cognate TCR and correlated with surface SABR expression in the presence of a cognate TCR (Extended Data Fig. 1c–e). […] We confirmed the ability of the DQ8-InsB9:23 SABR-II to present the epitope to two previously described, T1D patient-derived TCRs GSE.6H9 and GSE.20D11 (ref. [46]).
as §1

## SHLVEALYLVCGERG
[1]
  enrichment in screen (in words): enriched at a high confidence level
[2]
  frequency of GFP+CD69+ cells (in words): high frequency of GFP^+CD69^+ cells
